From patent US10047105B2, “Gyrase inhibitors” (Merck Sharp & Dohme Corp., priority 2009, dated 2018)
In brackets after ≈: the same amount, converted by molar mass.

Columns and labels:
S. pneumoniae ATCC 51916 = assay: MIC, S. pneumoniae; assay type: cell-based
S. aureus ATCC 13709 = assay: MIC, antibacterial potency, S. aureus; assay type: cell-based
[1] = S. pneumoniae (Spn52), in µg/mL

Row | Compound | MIC Spn52 (S. pneumoniae ATCC 51916; S. pneumoniae) [µg/mL] | MIC, SA (S. aureus ATCC 13709; S. aureus) [µg/mL] | MIC Spn52 (S. pneumoniae ATCC 51916; [1]) | MIC, SA (S. aureus ATCC 13709; S. aureus (SA), in µg/mL)
1 | CCc1[nH]c2nc(Sc3cnc4nccnc4c3)nc(N3CC(N4CCN(C(=O)OC(C)(C)C)CC4)C3)c2c1Cl.O=C(O)C(F)(F)F.O=C(O)C(F)(F)F [700,671] | 32 | 8 | – | –
2 | CCc1[nH]c2nc(Sc3cnc4nccnc4c3)nc(N3CC(N4CCNCC4)C3)c2c1Cl.O=C(O)C(F)(F)F.O=C(O)C(F)(F)F [700,672] | 8 | 8 | – | –
3 | CCc1[nH]c2nc(Sc3cnc4nccnc4c3)nc(N3CC4CNC4C3)c2c1Br.O=C(O)C(F)(F)F (centres unmarked) [700,673] | 4 | 2 | – | –
4 | CCc1[nH]c2nc(Sc3cnc4ccoc4c3)nc(N3CCC(N)C3)c2c1Cl.O=C(O)C(F)(F)F (centres unmarked) [700,676] | 8 | 4 | – | –
5 | CCc1[nH]c2nc(Sc3cnc4ccoc4c3)nc(N3CC4CNC4C3)c2c1Cl.O=C(O)C(F)(F)F (centres unmarked) [700,677] | 8 | 2 | – | –
6 | CCc1[nH]c2nc(Sc3cnc4nccnc4c3)nc(N3CC(N)C4(CC4)C3)c2c1Cl.O=C(O)C(F)(F)F (centres unmarked) [700,678] | 2 | 1 | – | –
7 | CCc1[nH]c2nc(Sc3cnc4ccoc4c3)nc(N3CCC(N)C3)c2c1Br.O=C(O)C(F)(F)F (centres unmarked) [700,679] | > 64 | > 64 | – | –
8 | CCc1[nH]c2nc(Sc3cnc4ccoc4c3)nc(N3CC4CNC4C3)c2c1Br.O=C(O)C(F)(F)F (centres unmarked) [700,680] | 64 | 16 | – | –
9 | CCc1[nH]c2nc(Sc3cnc4nccnc4c3)nc(Oc3cncc(OC)c3)c2c1Cl [700,686] | > 64 | > 64 | – | –
10 | CCc1[nH]c2nc(Sc3ccc4c(N)ncnc4c3)nc(Oc3cncc(OC)c3)c2c1Cl [700,687] | > 64 | > 64 | – | –
11 | CCc1[nH]c2nc(Sc3cnc4nccnc4c3)nc(N3CCC[C@H]3COC)c2c1Cl [700,688] | ≤ 0.5 | ≤ 0.5 | – | –
12 | CCc1[nH]c2nc(Sc3ccc4c(N)ncnc4c3)nc(N3CC4CNC4C3)c2c1Cl (centres unmarked) [700,689] | 8 (≈ 17.7 µM) | 2 (≈ 4.42 µM) | – | –
13 | CCOc1nc(Oc2ccc3nc(C)ccc3c2)nc2[nH]c(CC)c(Cl)c12.O=C(O)C(F)(F)F [700,690] | 8 | > 64 | – | –
14 | CCOc1nc(Oc2ccc3ccncc3c2)nc2[nH]c(CC)c(Cl)c12.O=C(O)C(F)(F)F [700,691] | > 64 | > 64 | – | –
15 | CCc1[nH]c2nc(Sc3ccc4nc[nH]c(=O)c4c3)nc(N3CC(N)C3)c2c1Cl.O=C(O)C(F)(F)F [700,694] | 8 | 2 | – | –
16 | CCc1[nH]c2nc(Sc3ccc4cc(C(=O)N5CC[C@@H](N)C5)cnc4c3)nc(N3CC[C@@H](N)C3)c2c1Cl [700,695] | 32 (≈ 59.6 µM) | 16 (≈ 29.8 µM) | – | –
17 | CCc1[nH]c2nc(Sc3cnc4[nH]c(C(F)(F)F)nc4c3)nc(N3CC[C@@H](N)C3)c2c1Cl [700,696] | 16 (≈ 33.1 µM) | > 64 | – | –
18 | CCc1[nH]c2nc(Sc3ccc4cc(C(=O)N[C@H]5CCOC5=O)cnc4c3)nc(N3CC[C@@H](N)C3)c2c1Cl [700,697] | 8 (≈ 14.5 µM) | 4 (≈ 7.25 µM) | – | –
19 | CCc1[nH]c2nc(Sc3ccc4cc(C(=O)OC)cnc4c3)nc(N3CC[C@@H](N)C3)c2c1Cl [700,698] | 8 (≈ 16.6 µM) | ≤ 0.5 | – | –
20 | CCOc1nc(Oc2ccc3[nH]ccc3c2)nc2[nH]c(CC)c(Cl)c12.O=C(O)C(F)(F)F [700,699] | 64 | 2 | – | –
21 | CCc1[nH]c2nc(Sc3cnc4nccnc4c3)nc(N3CCC(N4CCN(C)CC4)C3)c2c1Cl.O=C(O)C(F)(F)F.O=C(O)C(F)(F)F (centres unmarked) [700,700] | 8 | 4 | – | –

Row | Compound | MIC Spn52 (S. pneumoniae ATCC 51916; S. pneumoniae) [µg/mL] | MIC, SA (S. aureus ATCC 13709; S. aureus) [µg/mL] | MIC Spn52 (S. pneumoniae ATCC 51916; [1]) | MIC, SA (S. aureus ATCC 13709; S. aureus (SA), in µg/mL)
22 | CCOc1nc(Nc2cncnc2)nc2[nH]c(CC)c(Br)c12.O=C(O)C(F)(F)F [700,701] | 8 | 1 | – | –
23 | CCOc1nc(Nc2cncnc2)nc2[nH]c(CC)c(Cl)c12.O=C(O)C(F)(F)F [700,702] | 16 | 2 | – | –
24 | CCc1[nH]c2nc(Sc3ccc4cc(C(=O)O)cnc4c3)nc(N3CC[C@@H](N)C3)c2c1Cl [700,705] | > 64 | > 64 | – | –
25 | CCc1[nH]c2nc(Sc3cnc4cccnc4c3)nc(N3CC(C4(N)CC4)C3)c2c1Cl [700,706] | 2 (≈ 4.42 µM) | 1 (≈ 2.21 µM) | – | –
26 | CCc1[nH]c2nc(Sc3cnc4nccnc4c3)nc(N3CC(C4(N)CC4)C3)c2c1Cl [700,707] | 4 (≈ 8.83 µM) | 2 (≈ 4.42 µM) | – | –
27 | CCc1[nH]c2nc(Sc3ccc4nc(C)cc(C(=O)O)c4c3)nc(N3CC[C@@H](N)C3)c2c1Cl [700,708, (R)-6-(4-(3-aminopyrrolidin-1-yl)-5-chloro-6-ethyl-7H-pyrrolo[2,3-d]pyrimidin-2-ylthio)-2-methylquinoline-4-carboxylic acid] | > 64 | 32 (≈ 66.3 µM) | – | –
28 | CCc1[nH]c2nc(Sc3ccc4nc[nH]c(=O)c4c3)nc(N3CC[C@@H](N)C3)c2c1Cl [700,710] | 8 (≈ 18.1 µM) | 1 (≈ 2.26 µM) | – | –
29 | CCc1[nH]c2nc(Sc3ccc4c(c3)C(=O)NC4)nc(N3CC[C@@H](N)C3)c2c1Cl [700,711] | 8 (≈ 18.7 µM) | 1 (≈ 2.33 µM) | – | –
30 | CCc1[nH]c2nc(Sc3cnc4ncc(=O)[nH]c4c3)nc(N3CC[C@@H](N)C3)c2c1Cl [700,712] | > 64 | 8 (≈ 18.1 µM) | – | –
31 | CCc1[nH]c2nc(Sc3cnc4cccnc4c3)nc(N3CC(NC)C3)c2c1Cl [700,713] | 2 (≈ 4.7 µM) | 1 (≈ 2.35 µM) | – | –
32 | CCc1[nH]c2nc(Sc3cnc4nccnc4c3)nc(N3CC(NC)C3)c2c1Cl [700,714] | 4 (≈ 9.37 µM) | 2 (≈ 4.68 µM) | – | –
33 | CCc1[nH]c2nc(Sc3ccc4cc(C#N)cnc4c3)nc(N3CC[C@@H](N)C3)c2c1Cl [700,715] | 1 (≈ 2.22 µM) | ≤ 0.5 | – | –
34 | CCc1[nH]c2nc(Sc3ccc4cc(C#N)cnc4c3)nc(N3CC(CN)C3)c2c1Cl [700,716] | 2 (≈ 4.44 µM) | 1 (≈ 2.22 µM) | – | –
35 | CCc1[nH]c2nc(Sc3ccc4c(N)nc(C)nc4c3)nc(N3CC[C@@H](N)C3)c2c1Cl [700,717] | 4 (≈ 8.79 µM) | 2 (≈ 4.4 µM) | – | –
36 | CCc1[nH]c2nc(Sc3cnc4c(C#N)cnn4c3)nc(N3CC[C@@H](N)C3)c2c1Cl [700,718] | 8 (≈ 18.2 µM) | 4 (≈ 9.09 µM) | – | –
37 | CCc1[nH]c2nc(Sc3ccc4ccc(C(=O)O)nc4c3)nc(N3CC[C@@H](N)C3)c2c1Cl [700,719] | > 64 | 2 (≈ 4.26 µM) | – | –
38 | CCc1[nH]c2nc(Sc3cnc4nccnc4c3)nc(N3CCC(CN)C3)c2c1Cl.O=C(O)C(F)(F)F (centres unmarked) [700,720] | 16 | 8 | – | –
39 | CCc1[nH]c2nc(Sc3cnc4nccnc4c3)nc(N3CC4CCCNC4C3)c2c1Cl.O=C(O)C(F)(F)F (centres unmarked) [700,721] | 32 | 32 | – | –
40 | CCc1[nH]c2nc(Oc3cncnc3)nc(Oc3cncc(C#N)c3)c2c1Cl.O=C(O)C(F)(F)F [700,722] | 8 | 4 | – | –
41 | CCc1[nH]c2nc(Oc3cncc(C#N)c3)nc(Oc3cncc(C#N)c3)c2c1Cl.O=C(O)C(F)(F)F [700,723] | 2 | ≤ 0.5 | – | –
42 | CCc1[nH]c2nc(Oc3cncc(C#N)c3)nc(Oc3cncc(C#N)c3)c2c1Br.O=C(O)C(F)(F)F [700,724] | ≤ 0.5 | ≤ 0.5 | – | –

Row | Compound | MIC Spn52 (S. pneumoniae ATCC 51916; S. pneumoniae) [µg/mL] | MIC, SA (S. aureus ATCC 13709; S. aureus) [µg/mL] | MIC Spn52 (S. pneumoniae ATCC 51916; [1]) | MIC, SA (S. aureus ATCC 13709; S. aureus (SA), in µg/mL)
43 | CCc1[nH]c2nc(Sc3cnc4nccnc4c3)nc(N3CC4[C@H](C3)[C@@]4(N)C(N)=O)c2c1Cl.O=C(O)C(F)(F)F.O=C(O)C(F)(F)F (some centres unmarked) [700,781] | 1 | ≤ 0.5 | – | –
44 | CCc1[nH]c2nc(Sc3cncnc3)nc(N3CC[C@@H](N)C3)c2c1Cl [700,783] | 16 (≈ 42.6 µM) | 8 (≈ 21.3 µM) | – | –
45 | CCc1[nH]c2nc(Sc3cncnc3)nc(N3CC4C(N)C4C3)c2c1Cl (centres unmarked) [700,784] | 8 (≈ 20.6 µM) | 2 (≈ 5.16 µM) | – | –
46 | CCc1[nH]c2nc(Sc3cncnc3)nc(N3CC4CNC4C3)c2c1Cl (centres unmarked) [700,785] | 64 (≈ 165 µM) | 16 (≈ 41.2 µM) | – | –
47 | CCc1[nH]c2nc(Sc3cncnc3)nc(N3CC(CN)C3)c2c1Cl [700,786] | – | – | 32 | 16
48 | CCc1[nH]c2nc(Sc3cnc(N)nc3)nc(N3CC[C@@H](N)C3)c2c1Cl [700,788] | – | – | 16 | 8
49 | CCc1[nH]c2nc(Sc3cnc(N)nc3)nc(N3CC4C(N)C4C3)c2c1Cl (centres unmarked) [700,789] | – | – | 8 | 2
50 | CCc1[nH]c2nc(Sc3cnc(N)nc3)nc(N3CC4CNC4C3)c2c1Cl (centres unmarked) [700,790] | – | – | 64 | 16
51 | CCc1[nH]c2nc(Sc3cnc4nccnc4c3)nc(N3CCNCC3)c2c1Cl.O=C(O)C(F)(F)F [700,791] | – | – | 16 | 64
52 | CCc1[nH]c2nc(Sc3cnc4nccnc4c3)nc(N3CCC(n4c(=O)[nH]c5cc(Cl)ccc54)CC3)c2c1Cl.O=C(O)C(F)(F)F [700,792] | – | – | >64 | >64
53 | CCc1[nH]c2nc(Oc3cncc(C#N)c3)nc(Oc3cccc(C#N)c3)c2c1Br.O=C(O)C(F)(F)F [700,793] | – | – | <=0.5 | <=0.5
54 | CCc1[nH]c2nc(Sc3cnc4c(c3)OCCN4C)nc(N3CC(N)C3)c2c1Cl.O=C(O)C(F)(F)F [700,794] | – | – | 32 | 16
55 | CCc1[nH]c2nc(Sc3cnc4cccnc4c3)nc(N3CC4CNC4C3)c2c1Cl.O=C(O)C(F)(F)F.O=C(O)C(F)(F)F (centres unmarked) [700,796] | – | – | 1 | <=0.5
56 | CCc1[nH]c2nc(Sc3cnc4c(c3)ncc(=O)n4CCCN3CCCC3=O)nc(N3CC[C@@H](N)C3)c2c1Cl [700,797] | – | – | >32 | >32
57 | CCc1[nH]c2nc(Sc3cnc4c(c3)ncc(=O)n4CCO)nc(N3CC[C@@H](N)C3)c2c1Cl [700,798] | – | – | 32 | 16
58 | CCc1[nH]c2nc(Sc3cnc4c(c3)ncc(=O)n4C3CCNCC3)nc(N3CC[C@@H](N)C3)c2c1Cl [700,799] | – | – | >64 | >64
59 | CCc1[nH]c2nc(Sc3cnc4cccnc4c3)nc(N3CC4CCNC4C3)c2c1Cl (centres unmarked) [700,801] | – | – | <=0.5 | <=0.5
60 | CCc1[nH]c2nc(Sc3cncnc3)nc(N3CC4CCNC4C3)c2c1Cl (centres unmarked) [700,802] | – | – | 16 | 4
61 | CCc1[nH]c2nc(Sc3cnc(N)nc3)nc(N3CC4CCNC4C3)c2c1Cl (centres unmarked) [700,803] | – | – | 16 | 8
